The test deals with T1, glucocorticoid receptor (Homo sapiens, UniProt P04150).
T1 construct: endogenous in cells
T1 sequence (P04150 1-777): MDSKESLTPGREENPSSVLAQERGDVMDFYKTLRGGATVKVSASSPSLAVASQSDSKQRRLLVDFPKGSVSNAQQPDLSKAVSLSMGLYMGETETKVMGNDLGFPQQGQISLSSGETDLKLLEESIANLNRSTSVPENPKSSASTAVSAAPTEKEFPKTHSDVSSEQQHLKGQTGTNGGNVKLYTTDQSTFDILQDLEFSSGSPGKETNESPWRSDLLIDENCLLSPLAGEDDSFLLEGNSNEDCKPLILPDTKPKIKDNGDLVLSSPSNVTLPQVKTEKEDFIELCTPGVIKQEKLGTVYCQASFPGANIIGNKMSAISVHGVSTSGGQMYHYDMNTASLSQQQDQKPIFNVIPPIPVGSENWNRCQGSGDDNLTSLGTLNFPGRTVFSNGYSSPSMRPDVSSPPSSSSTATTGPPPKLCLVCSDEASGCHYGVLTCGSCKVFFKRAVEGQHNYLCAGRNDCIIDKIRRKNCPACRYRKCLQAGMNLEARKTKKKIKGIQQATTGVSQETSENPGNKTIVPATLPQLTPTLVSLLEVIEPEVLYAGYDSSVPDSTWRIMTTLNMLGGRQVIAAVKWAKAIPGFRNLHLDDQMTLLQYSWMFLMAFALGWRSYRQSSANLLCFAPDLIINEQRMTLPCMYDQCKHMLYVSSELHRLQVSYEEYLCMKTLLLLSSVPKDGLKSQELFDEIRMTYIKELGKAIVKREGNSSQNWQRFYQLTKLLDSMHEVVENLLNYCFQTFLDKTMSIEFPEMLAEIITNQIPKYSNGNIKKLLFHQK
Put plainly: Ligand binding assay (GR BIND). An outline of the steps:
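Cytosol from freeze–thawed cells in TEGM (pH 7.2, 10 mM molybdate) was incubated overnight at 4 °C with compound and [3H]-dexamethasone trace (added as 6 nM solution), 2% EtOH final. Bound ligand was captured on hydroxylapatite, filtered, washed and scintillation counted. Values were calculated with dexamethasone as reference.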

These results are taken from patent US8299048B2, “Hexahydrocyclopentyl[f]indazole sulfonamides and derivatives thereof as selective glucocorticoid receptor modulators” (Merck Sharp & Dohme Corp., priority 2008, dated 2012).

Molecules are shown by their SMILES.

The Ki is the equilibrium dissociation constant of an inhibitor or competing ligand from its target. Lower therefore signals tighter binding. `C[C@]12Cc3cnn(-c4ccc(F)cc4)c3C=C1CC[C@@H]2CN(CCO)S(=O)(=O)c1ccccc1Cl` [Example 81, 2-chloro-N-{[(4αR,5S)-1-(4-fluorophenyl)-4α-methyl-1,4,4α,5,6,7-hexahydrocyclopenta[f]indazol-5-yl]methyl}-N-(2-hydroxyethyl)benzenesulfonamide] came in with a Ki of 7.2 nM.
With `C[C@]12Cc3cnn(-c4ccc(F)cc4)c3C=C1CC[C@@H]2CN(CCO)S(=O)(=O)c1ccc(F)cc1F` [Example 82, 2,4-difluoro-N-{[(4αR,5S)-1-(4-fluorophenyl)-4α-methyl-1,4,4α,5,6,7-hexahydrocyclopenta[f]indazol-5-yl]methyl}-N-(2-hydroxyethyl)benzenesulfonamide] the figure was 3.2 nM.
With `Cc1nn(C)c(Cl)c1S(=O)(=O)N(CCO)C[C@H]1CCC2=Cc3c(cnn3-c3ccc(F)cc3)C[C@@]21C` [Example 83, 5-chloro-N-{[(4αR,5S)-1-(4-fluorophenyl)-4α-methyl-1,4,4α,5,6,7-hexahydrocyclopenta[f]indazol-5-yl]methyl}-N-(2-hydroxyethyl)-1,3-dimethyl-1H-pyrazole-4-sulfonamide] the figure was 3.7 nM.
The same measure for `C[C@]12Cc3cnn(-c4ccc(F)cc4)c3C=C1CC[C@@H]2CN(CCO)S(=O)(=O)c1ccccc1-c1ccccc1` [Example 84, N-{[(4αR,5S)-1-(4-fluorophenyl)-4α-methyl-1,4,4α,5,6,7-hexahydrocyclopenta[f]indazol-5-yl]methyl}-N-(2-hydroxyethyl)biphenyl-2-sulfonamide]: 2.6 nM.
`CC(=O)Nc1ccc(S(=O)(=O)N(CCO)C[C@H]2CCC3=Cc4c(cnn4-c4ccc(F)cc4)C[C@@]32C)cc1` [Example 85, N-(4-{[{[(4αR,5S)-1-(4-fluorophenyl)-4α-methyl-1,4,4α,5,6,7-hexahydrocyclopenta[f]indazol-5-yl]methyl}(2-hydroxyethyl)amino]sulfonyl}phenyl)acetamide] showed a Ki of 6.9 nM.
With `C[C@]12Cc3cnn(-c4ccc(F)cc4)c3C=C1CC[C@@H]2CN(CCc1ccccc1F)S(=O)(=O)c1ccccc1F` [Example 86, 2-fluoro-N-[2-(2-fluorophenyl)ethyl]-N-{[(4αR,5S)-1-(4-fluorophenyl)-4α-methyl-1,4,4α,5,6,7-hexahydrocyclopenta[f]indazol-5-yl]methyl}benzenesulfonamide] the figure was 4.2 nM; with `CCCS(=O)(=O)N(CCc1ccccc1F)C[C@H]1CCC2=Cc3c(cnn3-c3ccc(F)cc3)C[C@@]21C` [Example 87, N-[2-(2-fluorophenyl)ethyl]-N-{[(4αR,5S)-1-(4-fluorophenyl)-4α-methyl-1,4,4α,5,6,7-hexahydrocyclopenta[f]indazol-5-yl]methyl}propane-1-sulfonamide], 2.8 nM.
With `C[C@]12Cc3cnn(-c4ccc(F)cc4)c3C=C1CC[C@@H]2CN(CCc1ccccc1F)S(=O)(=O)Cc1cccc(C(F)(F)F)c1` [Example 88, N-[2-(2-fluorophenyl)ethyl]-N-{[(4αR,5S)-1-(4-fluorophenyl)-4α-methyl-1,4,4α,5,6,7-hexahydrocyclopenta[f]indazol-5-yl]methyl}-1-[3-(trifluoromethyl)phenyl]methanesulfonamide] the figure was 3.7 nM; with `C[C@]12Cc3cnn(-c4ccc(F)cc4)c3C=C1CC[C@@H]2CN(CCc1ccccc1F)S(=O)(=O)CC(F)(F)F` [Example 89, 2,2,2-trifluoro-N-[2-(2-fluorophenyl)ethyl]-N-{[(4αR,5S)-1-(4-fluorophenyl)-4α-methyl-1,4,4α,5,6,7-hexahydrocyclopenta[f]indazol-5-yl]methyl}ethanesulfonamide], 2.4 nM.
The same measure for `COc1ccccc1CCN(C[C@H]1CCC2=Cc3c(cnn3-c3ccc(F)cc3)C[C@@]21C)S(=O)(=O)c1ccccc1F` [Example 90, 2-fluoro-N-{[(4αR,5S)-1-(4-fluorophenyl)-4α-methyl-1,4,4α,5,6,7-hexahydrocyclopenta[f]indazol-5-yl]methyl}-N-[2-(2-methoxyphenyl)ethyl]benzenesulfonamide]: 3.6 nM.
With `Cc1ccc(CCN(C[C@H]2CCC3=Cc4c(cnn4-c4ccc(F)cc4)C[C@@]32C)S(=O)(=O)c2ccccc2F)cc1` [Example 91, 2-fluoro-N-{[(4αR,5S)-1-(4-fluorophenyl)-4α-methyl-1,4,4α,5,6,7-hexahydrocyclopenta[f]indazol-5-yl]methyl}-N-[2-(4-methylphenyl)ethyl]benzenesulfonamide], the Ki is 2 nM.
Molecule `C[C@]12Cc3cnn(-c4ccc(F)cc4)c3C=C1CC[C@@H]2CN(CCc1ccccc1Cl)S(=O)(=O)c1ccccc1F` [Example 92, N-[2-(2-chlorophenyl)ethyl]-2-fluoro-N-{[(4αR,5S)-1-(4-fluorophenyl)-4α-methyl-1,4,4α,5,6,7-hexahydrocyclopenta[f]indazol-5-yl]methyl}benzenesulfonamide] displayed a Ki of 3 nM.
`CC(C1CCC2=Cc3c(cnn3-c3ccc(F)cc3)C[C@@]21C)N(CCc1ccccc1F)S(=O)(=O)CC(F)(F)F` (stereo partly drawn) [Example 93, 2,2,2-trifluoro-N-[2-(2-fluorophenyl)ethyl]-N-{1-[(4αR)-1-(4-fluorophenyl)-4α-methyl-1,4,4α,5,6,7-hexahydrocyclopenta[f]indazol-5-yl]ethyl}ethanesulfonamide] showed a Ki of 2.7 nM.
The same measure for `COCCN(C[C@H]1CCC2=Cc3c(cnn3-c3ccc(F)cc3)C[C@@]21C)S(=O)(=O)c1ccccc1F` [Example 94, 2-fluoro-N-{[(4αR,5S)-1-(4-fluorophenyl)-4α-methyl-1,4,4α,5,6,7-hexahydrocyclopenta[f]indazol-5-yl]methyl}-N-(2-methoxyethyl)benzenesulfonamide]: 2.9 nM.
